Test results reported in US20220168271A1, “COMPOSITIONS AND METHODS FOR INCREASING T CELL FUNCTION” (SOCIETE DES PRODUITS NESTLE S.A., priority 2019, published 2022).

Tests used:
[1] = system: OTI-1 CD8+ T-cells; test: Seahorse mitochondrial stress analysis, spare respiratory capacity (metabolic potential); type: cell-based, mouse; details: day 7, negative control = effector T cells expanded with IL-2/7, concentrations as in the 1st table/the 2nd table
Protocol: (§1) Unless specified otherwise, cell media were supplemented with agents or combinations of agents at the following concentrations:
(§2) 750 μL of agent/agent combination supplementation solutions (described above) were added to corresponding wells of a flat bottom 24-well plate.
(§3) The total splenic cells were then resuspended in RPMI completed media (+10% FBS, Sodium Pyruvate), including IL-2 (final concentration 100 U/mL) and SIINFEKL peptide (final concentration 250 nM) at 1.6×10^6 cells/mL.
(§4) The cells from each condition (after day 3) were counted and resuspended in RPMI completed media (+10% FBS, Sodium Pyruvate) at 1.2×10^6 cells/mL.
(§5) The cells were then distributed in 96-well or 12-well plates at 5×10^4 cells/well (96-well plate) and 6×10^6 cells/well (12-well plate).
(§6) Agent/agent combination supplementation solutions (described above) or complete media were added to corresponding wells in addition to either: (a) IL-2 (at a final concentration of 100 U/mL) and IL-7 (at a final concentration of 10 U/mL) (to keep the effector phenotype); or (b) IL-15 (at a final concentration of 10 U/mL) (to induce differentiation into memory precursor effector cells (MPECs) as a positive control.
(§7) The cells were then incubated at 37° C. for 4 days before proceeding with FACS staining or Seahorse analysis.
Cells were harvested from 12-well or 6-well plates.
A probe plate containing cartridge pores (Seahorse XFe96 FluxPak) was prepared by adding 200 μL of Seahorse XF Calibrant solution (Agilent) to each well and incubating overnight at 37° C. (no CO2).
Residues were removed by transferring the cells to a 15 mL tube and a Pasteur pipette was added. 2 mL of Lympholyte M was slowly added to the Pasteur pipette, and the Ficoll was allowed to slowly release below the cells before the pipette was removed from the tube. The tube was the centrifuged at 1500 rpm, 10 min at room temperature without braking.
5 mL of fresh uncompleted RPMI was added to the cells, and the mixture was centrifuged at 1500 rpm, 5 min at room temperature. The cells were then resuspended in 1 mL of RPMI completed media (+10% FBS, Sodium Pyruvate).
Subsequently, the cells were counted before being resuspended at 5×10^6 cells/mL in completed XF Medium (non-buffered RPMI, with glucose (25 mM), L-glutamine (2 mM) and sodium pyruvate (1 mM), pH 7.3).
40 μL of cells were then distributed in corresponding pre-determined Poly-D-Lysine coated wells of a cell culture plate (V3-PS TC-Treated) and the plate was centrifuged at 400 g, 5 min.
140 μL of XF Medium was carefully added to each well, and the plate was incubated at 37° C., 30-60 min (no CO2). During this time modulator solutions (Oligomycin 10 μM; FCCP 15 μM; Rotenone/Antimycin A 1 μM/1 μg/mL) were loaded into the previously prepared cartridge pores: 20 μL of Oligomycin in pore A; 22 μL of FCCP in pore B; and 24 μL of Rotenone/Antimycin A in pore C) and the cartridge was incubated at 37° C. (no CO2).
Mitochondrial stress analysis was then carried out using the Wave software following the manufacturer instructions.
After data acquisition, oxygen consumption rates were extracted and spare respiratory capacity calculated following the manufacturer's instructions.
(§8) To study the enhancement of T cell immune fitness the in vitro studies focused on the development of T cells with long term and resting phenotypes, which could be equated to the development of memory cell characteristics. The metabolic intervention outcomes were evaluated using: • Cell phenotype: assessment by FACS of the cell surface expression of the specific marker CD62L, which is higher on resting T-cells. • Cell function: assessment using metabolic potential measurement (as per the Spare Respiratory Capacity) by means of an assay assessing cell respiration upon mitochondrial stress (Seahorse technology), which is higher in memory, quiescent cells.

[2] = system: OTI-1 CD8+ T-cells; test: CD62L surface expression by FACS on in vitro stimulated CD8+ T cells; type: cell-based, mouse; details: FACS median fluorescence, day 7; negative control = effector T cells expanded with IL-2/7; concentrations as in the 1st table/the 2nd table
Protocol: as §1
An OTI-1 mouse was sacrifice and dissected to extract the spleen. Under sterile conditions, the spleen was disrupted over a […] filter. PBS was then added to the disrupted spleen to a volume of 30 mL, and the mixture was centrifuged (1500 rpm, 5 min at room temperature).
The PBS supernatant was discarded and the cells resuspended in 2 mL of 1× red blood cell lysis buffer for 3 min. 15 mL of PBS was then added to wash the cells, and the mixture was centrifuged (1500 rpm, 5 min at room temperature).
The PBS supernatant was discarded and the cells resuspended in fresh RPMI completed media (+10% FBS, Sodium Pyruvate) before counting.
as §2, §3
750 μL of cell solution (2×) were added to each well. Thus, the cell count was 1200000 cells per well at 0.8×10^6 cells/mL.
The cells were then incubated at 37° C. for 3 days.
The specific activation of OTI-1 T-cells is due to the SIINFEKL peptide. Therefore after 3 days, mostly (if not only) CD8 T-cells will have proliferated and show an activation profile.
as §4, §5, §6
Extra media was added at day 5 to the wells with fresh agents and cytokines.
as §7
Cells were harvest from the 96-well plates and centrifuged (2000 rpm, 2 min at 4° C.) before washing with 150 μL of PBS.
(§9) The cells were then resuspended in 60 μL of LiveDead dye solution (1:500 dilution in PBS) and incubated for 15 min on ice. Cells were then centrifuged (2000 rpm, 2 min at 4° C.) before washing with 150 μL of PBS and then 200 μL of FACS buffer (PBS+2% FBS).
Subsequently, the cells were resuspended in 60 μL of stain solution (FACS buffer+antibodies specific for CD45.1, CD62L and CD8), and incubated for 15 min on ice.
(§10) Cells were then centrifuged (2000 rpm, 2 min at 4° C.) before washing with 150 μL of FACS buffer, and then resuspended in 150 μL of FACS buffer before analysis by FACS (BD™ LSR II).
After acquisition, FACS data were analysed using the FlowJo treestar software and median fluorescence for CD62L was extracted.
as §8

[3] = system: OTI-1 T cells; test: Adoptive transfer of pre-treated OTI-1 T cells into Listeria monocytogenes (Lm-OVA) infected mice, FACS of blood and spleen after 35 days; type: in vivo, C57BL/6 mice; details: for cell frequency: percentage of transferred cells (CD45.1) from total CD8 positive T cells, compared with control / percentage of memory cells (CD27 and CD43 positive) from CD8 positive transferred cells / percentage of MPECs (CD127 positive, KLRG1 negative) from CD8 positive transferred cells: 35 days of infection; for frequency levels of transferred cells compared with positive control (Phenformin treatment): Phenformin 100 μM pre-treatment
Protocol: The metabolic intervention consisted of cell medium supplementation as described above for the in vitro procedure) using the following agent concentrations, before adoptive transfer of the cells into infected mice.
For the in vivo assessment, the positive control was obtained by pre-treating the OTI-1 CD8 T-cells in vitro with Phenformin (100 μM) following the same procedure as for the other agents). Phenformin is known to induce a metabolic switch in cells essential for the development of long-term T-cells.
C57BL/6 mice were injected intravenously with 2000 CFU of Listeria monocytogenes bacteria expressing OVA at a concentration of 1×10^4 CFU/mL (Lm-OVA; harvested in Brain Heart Infusion media without antibiotics until OD reached 0.3) in 200 μL of PBS to induce a Listeria monocytogenes infection.
Treated OTI-1 T-cells (specific for OVA recognition) were provided from day 7 of the procedure described above in Example 1 at a concentration of 1×10^5 cells/mL in PBS. Residues were cleaned from the T cells using Lympholyte M as described above.
Adoptive transfer of OTI-1 T cells was carried out by intravenously injecting each mouse with 1×10^4 cells in 200 μL of PBS.
After 35 days, the mice were sacrificed to collect blood and spleens for further surface and intracellular FACs analysis.
Harvested blood or total spleen cells were subjected to red blood cell lysis in a 96-well plate and then centrifuged (2000 rpm, 2 min at 4° C.) before washing with 150 μL of PBS.
as §9
Subsequently, the cells were resuspended in 60 μL of stain solution (FACS buffer+antibodies specific for CD45.1, CD62L, CD8, CD127, KLRG1, CD27, CD43 and CXCR3), and incubated for 15 min on ice.
as §10
After acquisition, FACS data were analysed using the FlowJo treestar software and percentages of gated cells for targeted markers were extracted. […]
The cells were the centrifuged (2000 rpm, 2 min at 4° C.) and washed with 150 μL of 1× Permeabilization buffer (Intracellular staining kit (BD™)), and then centrifuged (2000 rpm, 2 min at 4° C.) and washed with 200 μL of FACS buffer. 200 μL of FACS buffer was then added and the mixture stored at 4° C. till analysis by FACS (BD™ LSR II) either the same or following day.
After acquisition, data were analysed using the FlowJo treestar software and percentages of gated cells for the targeted markers were extracted.
To study the enhancement of T cell immune fitness the in vivo studies focused on the development of T cells with long term and resting phenotypes after treatment and adoptive transfer into mice simultaneously infected with Listeria monocytogenes. The metabolic intervention outcomes were evaluated after 35 days of infection using: • Cell frequency: assessment by FACS of the percentage of transferred cells (CD45.1) from total CD8 positive T cells in the mice blood and spleen. • Cell phenotype: assessment by FACS of the percentage of cells from the blood and spleen that developed memory patterns from total CD8 positive transferred cells (CD45.1): either memory precursor effector cells (MPECs; both positive for CD127 and negative for KLRG1 markers) or full memory cells (positive for both CD27 and CD43 markers). • Cell function: assessment by FACS of the percentage of transferred cells (CD45.1) from total CD8 positive T cells in the mice spleen expressing the functional surface marker CXCR3 and able to produce both IFNγ and TNFα cytokines by intracellular staining.

Compound	metabolic potential (spare respiratory capacity) compared with negative control [1]	CD62L surface expression level compared with negative control [2]	cell frequency: percentage of transferred cells (CD45.1) from total CD8 positive T cells, compared with control ([3]; blood)	cell frequency: percentage of transferred cells (CD45.1) from total CD8 positive T cells, compared with control ([3]; spleen)	percentage of memory cells (CD27 and CD43 positive) from CD8 positive transferred cells ([3]; spleen)	percentage of MPECs (CD127 positive, KLRG1 negative) from CD8 positive transferred cells ([3]; blood)	percentage of memory cells (CD27 and CD43 positive) from CD8 positive transferred cells ([3]; blood)	frequency levels of transferred cells compared with positive control (Phenformin treatment) ([3]; blood)	percentage of MPECs (CD127 positive, KLRG1 negative) from CD8 positive transferred cells ([3]; spleen)	frequency levels of transferred cells compared with positive control (Phenformin treatment) ([3]; spleen)
N=C(N)NCCC[C@H](N)C(=O)O [Arg, Arginine]	higher	higher	higher	higher	higher	–	–	–	–	–
NC(=O)C[C@H](N)C(=O)O [Asn, Asparagine]	higher	higher	–	–	–	–	–	–	–	–
NCC(=O)O [Gly, Glycine]	higher	higher	–	–	–	–	–	–	–	–
[Cl][Mn][Cl] [Mn, MnCl2]	higher	higher	–	–	–	–	–	–	–	–
NC(=O)c1ccc[n+]([C@@H]2O[C@H](CO)[C@@H](O)[C@H]2O)c1 [NR, Nicotinamide riboside]	higher	higher	higher	higher	higher	higher	higher	higher	higher	similar
N[C@@H](CO)C(=O)O [Ser, Serine]	higher	higher	–	–	–	–	–	–	–	–
O=c1oc2cc(O)ccc2c2ccc(O)cc12 [UroA, urolithin A (3,8-dihydroxyurolithin)]	higher	higher	–	–	–	–	–	–	–	–
Vitamin B12	higher	higher	higher	higher	higher	–	higher	higher	higher	higher
